According to patent US20230415137A1, “PHOTOCATALYST COMPOSITION, PHOTOCATALYST COMPOSITION SOLUTION, PHOTOCATALYST MEMBER, METHOD FOR USING PHOTOCATALYST COMPOSITION, AND SPACE DISINFECTION METHOD” (priority 2020, published 2023):

Tested on: indigenous bacteria collected from the ultrasonic humidifier
Test: Bactericidal evaluation (photocatalyst composition solutions, first example group)
Type: cell-based
Settings: riboflavin sodium phosphate set to 10,000 ppm, no sacrificial agent
Description: The indigenous bacteria collected from the ultrasonic humidifier is adjusted to a predetermined concentration, then was added to an autoclave-sterilized normal bouillon medium (Eiken (register trade mark), manufactured by Eiken Chemical Co., Ltd.). Shaking culture for 24 hours was performed in a shaking incubator at 30° C. and 120 rpm. The solution when the number of bacteria reached about 1.5×10^9 CFU/ml was used as an inoculum solution.
Separately, the photocatalyst composition solutions obtained in the above Examples and Comparative Examples were also autoclave sterilized.
The inoculum solution was diluted with each of the photocatalyst composition solutions of the above Examples and Comparative Examples to prepare a solution having the number of bacteria of 1.5×10^7 CFU/ml, which was used as a test solution.
Two similar samples for each example and comparative example were prepared and stored under the following two conditions. The number of bacteria was measured using “Sani-Check BF” (manufactured by Biosan Laboratories, Inc.) and evaluation was performed according to the following evaluation criteria. […]

Cc1cc2nc3c(=O)[nH]c(=O)nc-3n(C[C@H](O)[C@H](O)[C@H](O)COP(=O)(O)O)c2cc1C [riboflavin sodium phosphate]
bactericidal effect as worded in the text: a certain degree of bactericidal effect
